For 38 compounds, IC50 results are on record in patent publication US6218431A, “Substituted biphenyls” (Bayer Corporation, priority 1997, dated 2001).

One may read the IC50 as the concentration at which inhibition is half-maximal.

T1 sequence (P47871 26-477): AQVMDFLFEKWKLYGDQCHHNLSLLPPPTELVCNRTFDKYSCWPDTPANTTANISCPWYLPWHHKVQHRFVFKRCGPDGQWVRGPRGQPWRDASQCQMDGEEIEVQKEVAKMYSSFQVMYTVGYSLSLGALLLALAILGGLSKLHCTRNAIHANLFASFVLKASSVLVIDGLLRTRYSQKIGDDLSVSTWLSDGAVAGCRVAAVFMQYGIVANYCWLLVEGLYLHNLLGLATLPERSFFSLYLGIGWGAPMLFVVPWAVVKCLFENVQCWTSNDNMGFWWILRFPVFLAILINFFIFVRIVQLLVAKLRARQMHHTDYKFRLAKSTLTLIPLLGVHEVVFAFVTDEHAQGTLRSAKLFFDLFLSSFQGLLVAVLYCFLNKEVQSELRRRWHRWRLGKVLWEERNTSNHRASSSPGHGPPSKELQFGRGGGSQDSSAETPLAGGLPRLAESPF

The test concerns the target T1, glucagon receptor (Homo sapiens, UniProt P47871).
T1 construct: expressed in transfected cells; host or cells: Chinese Hamster Ovary cells (CHO-HGR), membranes
Nature of the test: glucagon receptor binding assay (125I-glucagon, CHO-HGR membranes). The note with it: 125I-glucagon; 60 min at room temperature; read-out: IC50. The protocol: The affinity for the glucagon receptor of compounds of the present invention is determined by the glucagon receptor binding assay. Membranes were prepared from Chinese Hamster Ovary cells expressing the glucagon receptor (CHO-HGR) by scraping the cells into hypotonic lysis buffer (10 mM Tris, pH 7.4, 2 mM EDTA, 5 mM MgCl2 and 1 mM PMSF) and subjecting the material to Polytron homogenization. Nuclei were removed by a 15-min 800×g centrifugation step conducted at 4° C. Membranes containing the receptor were collected by centrifugation at 15,000×gfor 15 min at 4° C. The membranes were washed once in lysis buffer and suspended in 0.25 M sucrose, 10 mM Tris, 5 mM EDTA, pH 7.4. The membranes were used in ligand binding studies as reported (Yoo-Warren, H., Willse, A. G., Hancock, N., Hull, J., McCaleb, M., and Livingston, J. Regulation of Rat Glucagon Receptor Expression. Biochem. Biophysical Res. Commun. 1994, 205, 347-353). In brief, 10 ug of membrane protein was incubated in 130 μl of binding buffer that consisted of 20 mM Tris, […], 1 mM EDTA, 1 mg/ml BSA, and 1 mg/ml bacitracin. The membrane suspension was placed in each well of a 96-well filtration plate (glass fiber type C, Millipore). […] Following the addition of test compound, 50 μl of ^125 I-glucagon (9 fmol) (NEN) was added to each well. Control wells contained membranes, 0.5% DMSO (solvent for test compounds), radiolabeled glucagon without and with excess native glucagon (1 μM) to establish nonspecific binding. The plates were incubated for 60 min at room temperature, and then filtered on a Mllipore vacuum apparatus. Following a wash step with ice-cold PBS/0.1% BSA, the filters were punched into test tubes, and the membrane bound radioactivity was determined.
`CC=Cc1c(C(C)C)nc(C(C)C)c(CO)c1-c1ccccc1` [Example 12]: the IC50 turned out to be 1.7 µM.
With `CCC=Cc1c(C(C)C)nc(C(C)C)c(CO)c1-c1ccccc1` [Example 13], the IC50 turned out to be 3 µM.
The same measure for `CCCCCCc1c(C(C)C)nc(C(C)C)c(CO)c1-c1ccccc1` [Example 16, 2,6Diisopropyl-3-hydroxymethyl-4-phenyl-5-hexylpyridine]: 0.85 µM; for `CCCc1c(C(C)C)nc(C(C)C)c(CO)c1-c1ccccc1` [Example 17]: 0.6 µM.
Take `CCCCc1c(C(C)C)nc(C(C)C)c(CO)c1-c1ccccc1` [Example 18, 2,6-Diisopropyl-3-hydroxymethyl-4-phenyl-5-butylpyridine]: the half-inhibitory concentration (IC50) stood at 0.75 µM.
The same measure for `CCCCC=Cc1c(C(C)C)nc(C(C)C)c(CO)c1-c1ccc(F)cc1` [Example 19, 2,6-Diisproyl-3-hyroxymethyl-4-(4-fluorophenyl)-5-(1-hexenyl)-pyridine]: 0.7 µM; for `CCC=Cc1c(C(C)C)nc(C(C)C)c(CO)c1-c1ccc(F)cc1` [Example 20, 2,6-Diisopropyl-3-hydroxymethyl-4-(4-fluorophenyl)-5-(l-butenyl)-pyridine]: 1.3 µM; for `CC=Cc1c(C(C)C)nc(C(C)C)c(CO)c1-c1ccc(F)cc1` [Example 21, 2,6-Diisopropyl-3-hydroxymethyl-4-(4-fluorophenyl)-5-(1-propenyl)-pyridine]: 0.8 µM.
With `C=Cc1c(C(C)C)nc(C(C)C)c(CO)c1-c1ccc(F)cc1` [Example 22, 2,6Diisopropyl-3-hydroxymethyl-4-(4-fluorophenyl)-5-ethenylpyridine] the figure was 1.1 µM; with `CCCCCCc1c(C(C)C)nc(C(C)C)c(CO)c1-c1ccc(F)cc1` [Example 23, 2,6-Diisopropyl-3-hydroxymethyl-4-(4-fluorophenyl)-5-hexylpyridine], 0.39 µM; with `CCCCc1c(C(C)C)nc(C(C)C)c(CO)c1-c1ccc(F)cc1` [Example 24, 2,6-Diisopropyl-3-hydroxymethal-4-(4fluorophenyl)-5-butylpyridine], 0.75 µM.
The same measure for `CCCc1c(C(C)C)nc(C(C)C)c(CO)c1-c1ccc(F)cc1` [Example 25, 2,6-Diisopropyl-3-hydroxymethyl-4-(4-fluorophenyl)-5-propylpyridine]: 0.4 µM; for `CCc1c(C(C)C)nc(C(C)C)c(CO)c1-c1ccc(F)cc1` [Example 26, 2,6Diisopropyl-3-hydroxymethyl-4-(4-fluorophenyl)-5-ethylpyridine]: 1 µM.
As for `CC(C)C=Cc1c(C(C)C)nc(C(C)C)c(CO)c1-c1ccc(F)cc1` [Example 27, 2,6-Diisopropyl-3-hydroxymethyl-4-(4-fluorophenyl)-5-(3-methyl-1-butenyl)pyridine], the IC50 stood at 20 µM.
For the compound `CC(C)CC=Cc1c(C(C)C)nc(C(C)C)c(CO)c1-c1ccc(F)cc1` [Example 28, 2,6Diisopropyl-3-hydroxymethyl-4-(4-fluorophenyl)-5-(4-methyl-1-pentenyl)pyridine], the IC50 is 1 µM.
As to `CC(C)CCc1c(C(C)C)nc(C(C)C)c(CO)c1-c1ccc(F)cc1` [Example 29, 2,6-Diisopropyl-3-hydroxymethyl-4-(4-fluorophenyl)-5-(3-methylbutyl)pyridine], the IC50 stood at 1 µM.
The same measure for `CC(C)CCCc1c(C(C)C)nc(C(C)C)c(CO)c1-c1ccc(F)cc1` [Example 30, 2,6-Diisopropyl-3-hydroxymethyl-4-(4-fluorophenyl)-5-(4-methylpentyl)pyridine]: 0.9 µM.
As for `CC(C)c1nc(C(C)C)c(CO)c(-c2ccc(F)cc2)c1C=C1CCCC1` [Example 31, 2,6-Diisopropyl-3-hydroxymethyl-4-(4-flurorphenyl)-5-(cyclopentyl-idenemethylene)pyridine], the IC50 came to 2.6 µM.
Regarding `CCCCCC=Cc1c(C(C)C)nc(C(C)C)c(CO)c1-c1ccc(F)cc1` [Example 32, 2,6-Diisopropyl-3-hydroxymethyl-4-(4-fluorophenyl)-5-(1-heptenyl)-pyridine], the IC50 was 1.1 µM.
With `CCCCCCC=Cc1c(C(C)C)nc(C(C)C)c(CO)c1-c1ccc(F)cc1` [Example 33, 2,6-Diisopropyl-3-hydroxymethyl-4-(4-fluorophenyl)-5-(1-octenyl)-pyridine] the figure was 1.8 µM.
With `CC(C)c1nc(C(C)C)c(CO)c(-c2ccc(F)cc2)c1/C=C/c1ccccc1` [Example 34, 2,6-Diisopropyl-3hydroxymethyl-4-(4-fluorophenyl)-5-[2(E)-phenyl-ethenyl]pyridine] the figure was 0.6 µM; with `CCCCCCCc1c(C(C)C)nc(C(C)C)c(CO)c1-c1ccc(F)cc1` [Example 35, 2,6-Diisopropyl-3-hydroxymethyl-4-(4-fluorophenyl)-5-heptylpyridine], 0.7 µM.
With `CCCCCCCCc1c(C(C)C)nc(C(C)C)c(CO)c1-c1ccc(F)cc1` [Example 36, 2,6-Diisopropyl-3-hydroxymethyl-4-(4-fluorophenyl)-5-octylpyridine] the figure was 1.8 µM; with `CC(C)c1nc(C(C)C)c(CCc2ccccc2)c(-c2ccc(F)cc2)c1CO` [Example 37, 2,6-Diisopropyl-3-hydroxymethyl-4-(4-fluorophenyl)-5-(2-phenylethyl)pyridine], 0.75 µM; with `CC(C)c1nc(C(C)C)c(CO)c(-c2ccc(F)cc2)c1C=CCCc1ccccc1` [Example 38, 2,6-Diisopropyl-3-hydroxymethyl-4-(4-fluorophenyl)-5-(4phenyl-1-butenyl)pyridine], 0.6 µM.
Take `CC(C)c1nc(C(C)C)c(CCCCc2ccccc2)c(-c2ccc(F)cc2)c1CO` [Example 39]: the IC50 is 1.3 µM.
The same measure for `Cc1ccccc1/C=C/c1c(C(C)C)nc(C(C)C)c(CO)c1-c1ccc(F)cc1` [Example 40, 2,6-Diisopropyl-3-hydroxymethyl-4-(4-fluorophenyl)-5-[2(E)-(2-methyl-phenyl)ethenyl]pyridine]: 0.75 µM; for `Cc1cccc(/C=C/c2c(C(C)C)nc(C(C)C)c(CO)c2-c2ccc(F)cc2)c1` [Example 41, 2,6-Diisopropyl-3-hydroxvmethyl-4-(4fluorophenyl)-5-[2(E)-(3-methyl-phenyl)ethenyl]pyridine]: 0.6 µM; for `Cc1ccc(/C=C/c2c(C(C)C)nc(C(C)C)c(CO)c2-c2ccc(F)cc2)cc1` [Example 42, 2,6-Diisopropyl-3-hydroxymethyl-4-(4-fluorophenyl)-5-[2(E)-(4-methyl-phenyl)ethenyl]pyridine]: 0.7 µM.
On to `Cc1ccccc1CCc1c(C(C)C)nc(C(C)C)c(CO)c1-c1ccc(F)cc1` [Example 43, 2,6-Diisopropyl-3-hydroxymethyl-4-(4-fluorophenyl)-5-[2-(2-methyl-phenyl)ethyl]pyridine], for which the IC50 stood at 1.8 µM.
With `Cc1cccc(CCc2c(C(C)C)nc(C(C)C)c(CO)c2-c2ccc(F)cc2)c1` [Example 44, 2,6-Diisopropyl-3-hydroxymethyl-4-(4-fluorophenyl)-5-[2-(3-methyl-phenyl)ethyl]pyridine] the figure was 1 µM; with `Cc1ccc(CCc2c(C(C)C)nc(C(C)C)c(CO)c2-c2ccc(F)cc2)cc1` [Example 45, 2,6-Diisopropyl-3-hydroxyl methyl-4-(4-fluorophenyl)-5-[2-(4-methyl-phenyl)ethyl]pyridine], 1.1 µM; with `CC(C)c1nc(C(C)C)c(CCCC2OCCO2)c(-c2ccc(F)cc2)c1CO` [Example 46], 9 µM.
With `CC(C)c1nc(C(C)C)c(CSc2ccccc2)c(-c2ccc(F)cc2)c1CO` [Example 47, 2,6Diisopropyl-3-hydroxymethyl-4-(4fluorophenyl)-5[(phenylthio)-methyl]pyridine] the figure was 1.5 µM; with `CC(C)c1nc(C(C)C)c(CSc2cccc(C(F)(F)F)c2)c(-c2ccc(F)cc2)c1CO` [Example 48, 2,6-Diisopropyl-3-hydroxymethyl-4-(4-fluorophenyl)-5-[((3-trifluoro-methyl)phenyl)thio]methylpyridine], 1.8 µM; with `CC(C)c1nc(C(C)C)c(CSc2ccc(F)cc2)c(-c2ccc(F)cc2)c1CO` [Example 49, 2,6-Diisopropyl-3-hydroxymethyl-4-(4-fluorophenyl)-5-[(4-fluoro-phenyl)thio]methylpyridine], 1.1 µM.
With `Cc1ccc(SCc2c(C(C)C)nc(C(C)C)c(CO)c2-c2ccc(F)cc2)cc1` [Example 50, 2,6-Diisopropyl-3-hydroxymethyl-4-(4-fluorophenyl)-5-[((4-methyl)-phenyl)thio]methylpyridine] the figure was 0.9 µM.
Turning to `CC(C)c1nc(C(C)C)c(CSc2cccc3ccccc23)c(-c2ccc(F)cc2)c1CO` [Example 51, 2,6-Diisopropyl-3-hydroxymethyl-4-(4-fluorophenyl)-5-(1-naphthylthio)-methylpyridine], the IC50 was 16 µM.
